According to patent US20240252488A1 (KOREA RESEARCH INSTITUTE OF CHEMICAL TECHNOLOGY, priority 2020, published 2024):

Key:
FADD−/− Jurkat cells = assay: Necroptosis inhibition assay, TNF-α-induced necroptosis (CellTiter-Glo 2.0); format: cell-based, human; conditions: TNF-α 15 ng/mL; for Necroptosis inhibition assay (Rescue %) 1 μM: compound 1 μM; for Necroptosis inhibition assay (Rescue %) 10 μM: compound 10 μM
How it was run: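 FADD−/− Jurkat cells preincubated 30 min at room temperature with compound at 0.1, 1 and 10 μM final, then stimulated with TNF-α (15 ng/mL final) for 20–24 h at 37 °C, 5% CO2. Viability read as ATP luminescence; cytotoxicity and necroptosis inhibition rate calculated from luminescence values.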

MLKL [1] = target: T1, MLKL (Homo sapiens, UniProt Q8NB16); assay: Measurement of binding affinity with MLKL receptor (competitive binding assay, Kd); set-up: made in house; host or cells: HEK 293 cell line (T7 phage in E. coli BL21-derived host is also described)
T1 sequence (Q8NB16 1-471): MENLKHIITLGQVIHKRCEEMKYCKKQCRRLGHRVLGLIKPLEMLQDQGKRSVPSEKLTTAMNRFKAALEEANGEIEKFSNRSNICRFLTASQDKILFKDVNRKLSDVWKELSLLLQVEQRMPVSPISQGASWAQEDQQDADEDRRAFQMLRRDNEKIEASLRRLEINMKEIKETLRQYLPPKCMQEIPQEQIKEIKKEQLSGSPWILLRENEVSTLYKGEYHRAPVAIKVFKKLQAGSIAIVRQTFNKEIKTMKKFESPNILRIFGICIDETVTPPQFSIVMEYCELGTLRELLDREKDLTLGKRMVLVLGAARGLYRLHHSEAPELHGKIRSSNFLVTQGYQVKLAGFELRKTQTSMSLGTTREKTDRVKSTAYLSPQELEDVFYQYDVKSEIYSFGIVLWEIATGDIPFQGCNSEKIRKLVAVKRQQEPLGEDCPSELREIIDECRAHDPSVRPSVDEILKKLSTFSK
How it was run: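 HEK 293-expressed, DNA-tagged MLKL; ligand beads blocked with biotin and SeaBlock/1% BSA/0.05% Tween 20/1 mM DTT buffer. Cpd from 111× DMSO stock, 0.9% DMSO final. Eluted kinase by qPCR → Kd.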

MLKL [2] = target: T1, MLKL; assay: MLKL degradation assay in HepG2 cell line (western blot); format: cell-based; set-up: endogenous in cells; host or cells: HepG2 or HaCaT; conditions: cell line not given; for Degradation assay (Degradation %) 1 μM: compound 1 μM; for Degradation assay (Degradation %) 10 μM: compound 10 μM
How it was run: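 HepG2 cells were treated 20-24 h at 37 °C with compound at 1 or 10 μM final. RIPA lysates were normalized by BCA, and 10-15 μg protein per lane was resolved by SDS-PAGE. MLKL was detected by western blot with chemiluminescence.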

| Compound | Kd (MLKL [1]) [nM] | Degradation assay (Degradation %) 1 μM (MLKL [2]) [%] | Degradation assay (Degradation %) 10 μM (MLKL [2]) [%] | Necroptosis inhibition assay (Rescue %) 1 μM (FADD−/− Jurkat cells) [%] | Necroptosis inhibition assay (Rescue %) 10 μM (FADD−/− Jurkat cells) [%] |
| --- | --- | --- | --- | --- | --- |
| Nc1ncc(-c2cnn(C3CCN(C(=O)CC4CCN(C(=O)C5CCN(c6ccc7c(c6)C(=O)N(C6CCC(=O)NC6=O)C7=O)CC5)CC4)CC3)c2)nc1C(=O)O[C@@H](C(=O)Nc1ccc(F)cc1)c1ccccc1 (stereo partly drawn) [TDH-342, (R)-2-((4-fluorophenyl)amino)-2-oxo-1-phenylethyl 3-amino-6-(1-(1-(2-(1-(1-(2-(2,6-dioxopiperidin-3-yl)-1,3-dioxoisoindolin-5-yl)piperidine-4-carbonyl)piperidin-4-yl)acetyl)piperidin-4-yl)-1H-pyrazol-4-yl)pyrazine-2-carboxylate] | 5.8 | 70.74 | 54.03 | 28.05 | 17.55 |
| Nc1ncc(-c2cnn(C3CCN(C(=O)CC4CCN(c5cccc6c5C(=O)N(C5CCC(=O)NC5=O)C6=O)CC4)CC3)c2)nc1C(=O)O[C@@H](C(=O)Nc1ccc(F)cc1)c1ccccc1 (stereo partly drawn) [TDH-343, (R)-2-((4-fluorophenyl)amino)-2-oxo-1-phenylethyl 3-amino-6-(1-(1-(2-(1-(2-(2,6-dioxopiperidin-3-yl)-1,3-dioxoisoindolin-4-yl)piperidin-4-yl)acetyl)piperidin-4-yl)-1H-pyrazol-4-yl)pyrazine-2-carboxylate] | 11 | 31.43 | 43.78 | 12.75 | 14.42 |
| Nc1ncc(-c2cnn(C3CCN(C(=O)CC4CCN(c5ccc6c(c5)C(=O)N(C5CCC(=O)NC5=O)C6=O)CC4)CC3)c2)nc1C(=O)O[C@@H](C(=O)Nc1ccc(F)cc1)c1ccccc1 (stereo partly drawn) [TDH-344, (R)-2-((4-fluorophenyl)amino)-2-oxo-1-phenylethyl 3-amino-6-(1-(1-(2-(1-(2-(2,6-dioxopiperidin-3-yl)-1,3-dioxoisoindolin-5-yl)piperidin-4-yl)acetyl)piperidin-4-yl)-1H-pyrazol-4-yl)pyrazine-2-carboxylate] | 13 | 64.15 | 47.75 | 14.48 | 17.63 |

These reach a lower Kd (MLKL [1]). Values come first.

| Kd (MLKL [1]) [nM] | Degradation assay (Degradation %) 1 μM (MLKL [2]) [%] | Degradation assay (Degradation %) 10 μM (MLKL [2]) [%] | Compound | Necroptosis inhibition assay (Rescue %) 1 μM (FADD−/− Jurkat cells) [%] | Necroptosis inhibition assay (Rescue %) 10 μM (FADD−/− Jurkat cells) [%] |
| --- | --- | --- | --- | --- | --- |
| 3.5 | 70.78 | 51.56 | Nc1ncc(-c2cnn(C3CCN(C(=O)CC4CCN(C(=O)C5CCN(c6cccc7c6C(=O)N(C6CCC(=O)NC6=O)C7=O)CC5)CC4)CC3)c2)nc1C(=O)O[C@@H](C(=O)Nc1ccc(F)cc1)c1ccccc1 (stereo partly drawn) [TDH-341, (R)-2-((4-fluorophenyl)amino)-2-oxo-1-phenylethyl 3-amino-6-(1-(1-(2-(1-(1-(2-(2,6-dioxopiperidin-3-yl)-1,3-dioxoisoindolin-4-yl)piperidine-4-carbonyl)piperidin-4-yl)acetyl)piperidin-4-yl)-1H-pyrazol-4-yl)pyrazine-2-carboxylate] | 38.23 | 24.8 |
| 1.5 | 87.91 | 80.66 | Nc1ncc(-c2cnn(C3CCN(C[C@H]4CC[C@H](CNC(=O)COc5cccc6c5C(=O)N(C5CCC(=O)NC5=O)C6=O)CC4)CC3)c2)nc1C(=O)O[C@@H](C(=O)Nc1ccc(F)cc1)c1ccccc1 (stereo partly drawn) [TDH-345, (R)-2-((4-fluorophenyl)amino)-2-oxo-1-phenylethyl 3-amino-6-(1-(1-(((1r,4r)-4-((2-((2-(2,6-dioxopiperidin-3-yl)-1,3-dioxoisoindolin-4-yl)oxy)acetamido)methyl)cyclohexyl)methyl)piperidin-4-yl)-1H-pyrazol-4-yl)pyrazine-2-carboxylate] | 29.41 | 19.45 |
